Key:
[1] = molecular target: T1, 5-hydroxytryptamine receptor 2B (Homo sapiens, UniProt P41595); assay: Agonist activity at human 5-HT2B receptor expressed in HEK293 cells assessed as increase in calcium mobilization by FLIPR assay relative to 5-HT; assay type: functional, cell-based
[2] = molecular target: Beta-3 adrenergic receptor (Homo sapiens, UniProt P13945); assay: Displacement of [125I]Iodopindolol from human recombinant adrenergic beta3 receptor expressed in HEK293 cells coexpressing FLP-IN after 1 to […] by scintillation counting analysis; assay type: cell-based
Sequence of Beta-3 adrenergic receptor (P13945 whole entry): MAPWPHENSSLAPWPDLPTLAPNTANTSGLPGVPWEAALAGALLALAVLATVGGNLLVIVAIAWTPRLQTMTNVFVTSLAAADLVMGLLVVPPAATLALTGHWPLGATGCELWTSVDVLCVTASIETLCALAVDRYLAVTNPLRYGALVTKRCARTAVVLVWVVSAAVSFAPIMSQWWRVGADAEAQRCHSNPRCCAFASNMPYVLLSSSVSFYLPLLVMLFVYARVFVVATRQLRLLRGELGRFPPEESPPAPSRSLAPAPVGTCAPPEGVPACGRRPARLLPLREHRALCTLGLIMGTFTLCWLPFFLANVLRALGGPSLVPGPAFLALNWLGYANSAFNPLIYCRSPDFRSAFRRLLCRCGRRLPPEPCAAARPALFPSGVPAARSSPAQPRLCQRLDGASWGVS

[3] = molecular target: Muscarinic acetylcholine receptor M2 (Homo sapiens, UniProt P08172); assay: Displacement of [3H]QNB from human recombinant muscarinic M2 receptor expressed in CHO cells after 1 to […] by scintillation counting analysis; assay type: cell-based
[4] = molecular target: 5-hydroxytryptamine receptor 1D (Homo sapiens, UniProt P28221); assay: Displacement of [3H][…] from human recombinant 5-HT1D receptor expressed in HEK293T cells after 1 to […] by scintillation counting analysis; assay type: cell-based, HEK-293T
Sequence of 5-hydroxytryptamine receptor 1D (P28221 whole entry): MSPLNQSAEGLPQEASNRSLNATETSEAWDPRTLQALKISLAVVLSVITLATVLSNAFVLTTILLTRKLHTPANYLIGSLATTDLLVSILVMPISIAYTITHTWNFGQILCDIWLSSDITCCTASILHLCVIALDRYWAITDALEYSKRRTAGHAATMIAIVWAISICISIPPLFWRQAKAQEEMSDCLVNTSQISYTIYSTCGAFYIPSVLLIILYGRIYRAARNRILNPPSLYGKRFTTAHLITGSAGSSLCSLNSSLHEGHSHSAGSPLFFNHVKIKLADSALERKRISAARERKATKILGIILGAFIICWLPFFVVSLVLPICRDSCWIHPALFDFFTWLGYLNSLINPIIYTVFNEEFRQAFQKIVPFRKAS

[5] = molecular target: Delta-type opioid receptor (Homo sapiens, UniProt P41143); assay: Displacement of [3H]DADLE from human recombinant delta opioid receptor receptor expressed in HEK293 cells after 1 to […] by scintillation counting analysis; assay type: cell-based
Sequence of Delta-type opioid receptor (P41143 whole entry): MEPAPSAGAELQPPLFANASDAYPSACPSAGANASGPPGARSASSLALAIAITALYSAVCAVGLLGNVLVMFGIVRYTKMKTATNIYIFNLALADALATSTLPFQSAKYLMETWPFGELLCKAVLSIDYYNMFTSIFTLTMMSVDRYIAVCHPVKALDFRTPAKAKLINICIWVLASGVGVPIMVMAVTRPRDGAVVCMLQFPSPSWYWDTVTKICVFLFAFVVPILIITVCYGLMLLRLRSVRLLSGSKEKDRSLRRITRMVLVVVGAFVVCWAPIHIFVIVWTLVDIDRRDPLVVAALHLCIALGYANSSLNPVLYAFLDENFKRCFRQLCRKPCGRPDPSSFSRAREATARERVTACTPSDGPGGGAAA

[6] = molecular target: 5-hydroxytryptamine receptor 5A (Homo sapiens, UniProt P47898); assay: Displacement of [3H]LSD from human recombinant 5-HT5A receptor expressed in CHO cells coexpressing FLP-IN after 1 to […] by scintillation counting analysis; assay type: cell-based
[7] = molecular target: T2, Neuronal acetylcholine receptor; alpha4/beta2 (Homo sapiens, UniProt P17787+P43681); assay: Displacement of [3H]Epibatidine from alpha4beta2 nACh receptor in HEK293 cells after 1 to […] by scintillation counting analysis; assay type: cell-based
T2 sequence (P17787 whole entry): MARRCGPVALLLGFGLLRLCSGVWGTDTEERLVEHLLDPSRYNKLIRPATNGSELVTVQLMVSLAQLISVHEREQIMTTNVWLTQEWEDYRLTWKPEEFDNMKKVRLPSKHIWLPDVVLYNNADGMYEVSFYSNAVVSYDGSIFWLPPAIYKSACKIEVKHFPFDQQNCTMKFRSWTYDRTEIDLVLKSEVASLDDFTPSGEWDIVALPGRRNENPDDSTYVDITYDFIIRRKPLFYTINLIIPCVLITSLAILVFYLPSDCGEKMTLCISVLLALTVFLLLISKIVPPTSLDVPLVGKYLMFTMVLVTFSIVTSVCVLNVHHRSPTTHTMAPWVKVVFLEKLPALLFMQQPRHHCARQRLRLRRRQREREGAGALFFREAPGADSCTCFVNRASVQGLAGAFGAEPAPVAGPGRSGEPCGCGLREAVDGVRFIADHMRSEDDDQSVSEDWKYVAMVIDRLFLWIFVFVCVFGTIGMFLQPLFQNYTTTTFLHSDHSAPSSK
T2 sequence (P43681 whole entry): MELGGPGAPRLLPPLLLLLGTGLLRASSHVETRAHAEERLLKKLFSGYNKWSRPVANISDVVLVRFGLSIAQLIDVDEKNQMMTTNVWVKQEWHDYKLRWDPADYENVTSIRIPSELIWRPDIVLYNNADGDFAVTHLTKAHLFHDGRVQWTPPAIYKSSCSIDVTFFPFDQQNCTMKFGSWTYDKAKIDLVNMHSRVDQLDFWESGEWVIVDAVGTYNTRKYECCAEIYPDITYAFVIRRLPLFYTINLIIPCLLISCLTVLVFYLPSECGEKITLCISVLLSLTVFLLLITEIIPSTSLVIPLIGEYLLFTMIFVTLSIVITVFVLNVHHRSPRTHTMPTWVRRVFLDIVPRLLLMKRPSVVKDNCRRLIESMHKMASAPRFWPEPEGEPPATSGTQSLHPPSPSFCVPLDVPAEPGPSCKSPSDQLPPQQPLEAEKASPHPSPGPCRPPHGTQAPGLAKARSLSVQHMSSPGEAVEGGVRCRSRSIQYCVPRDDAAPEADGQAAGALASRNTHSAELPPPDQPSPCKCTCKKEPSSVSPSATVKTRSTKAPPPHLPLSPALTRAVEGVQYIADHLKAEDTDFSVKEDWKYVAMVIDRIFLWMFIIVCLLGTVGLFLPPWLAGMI

[8] = molecular target: T3, Sodium-dependent dopamine transporter (Homo sapiens, UniProt Q01959); assay type: cell-based, HEK293
T3 sequence (Q01959 whole entry): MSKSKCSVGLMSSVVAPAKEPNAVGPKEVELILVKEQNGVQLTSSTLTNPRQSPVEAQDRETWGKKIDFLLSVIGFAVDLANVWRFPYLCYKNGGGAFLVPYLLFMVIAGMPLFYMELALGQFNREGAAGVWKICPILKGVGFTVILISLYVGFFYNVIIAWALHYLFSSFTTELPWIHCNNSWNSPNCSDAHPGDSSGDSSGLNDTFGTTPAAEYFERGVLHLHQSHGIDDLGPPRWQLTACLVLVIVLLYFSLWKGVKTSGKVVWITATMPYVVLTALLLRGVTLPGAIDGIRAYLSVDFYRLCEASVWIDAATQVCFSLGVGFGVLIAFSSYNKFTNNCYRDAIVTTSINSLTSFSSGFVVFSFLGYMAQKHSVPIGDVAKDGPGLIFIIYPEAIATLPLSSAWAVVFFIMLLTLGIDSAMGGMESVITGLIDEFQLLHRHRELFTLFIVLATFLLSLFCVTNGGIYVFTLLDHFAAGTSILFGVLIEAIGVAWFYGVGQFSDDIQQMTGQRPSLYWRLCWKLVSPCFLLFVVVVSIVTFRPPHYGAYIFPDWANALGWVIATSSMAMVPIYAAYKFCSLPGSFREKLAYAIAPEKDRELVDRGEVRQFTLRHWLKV

[9] = Displacement of [3H]Muscimol from GABAA receptor in rat brain after 1 to […] by scintillation counting analysis; assay type: tissue-based
[10] = molecular target: 5-hydroxytryptamine receptor 6 (Homo sapiens, UniProt P50406); assay: Displacement of [3H]LSD from human recombinant 5-HT6 receptor expressed in HEK293 cells after 1 to […] by scintillation counting analysis; assay type: cell-based
Sequence of 5-hydroxytryptamine receptor 6 (P50406 whole entry): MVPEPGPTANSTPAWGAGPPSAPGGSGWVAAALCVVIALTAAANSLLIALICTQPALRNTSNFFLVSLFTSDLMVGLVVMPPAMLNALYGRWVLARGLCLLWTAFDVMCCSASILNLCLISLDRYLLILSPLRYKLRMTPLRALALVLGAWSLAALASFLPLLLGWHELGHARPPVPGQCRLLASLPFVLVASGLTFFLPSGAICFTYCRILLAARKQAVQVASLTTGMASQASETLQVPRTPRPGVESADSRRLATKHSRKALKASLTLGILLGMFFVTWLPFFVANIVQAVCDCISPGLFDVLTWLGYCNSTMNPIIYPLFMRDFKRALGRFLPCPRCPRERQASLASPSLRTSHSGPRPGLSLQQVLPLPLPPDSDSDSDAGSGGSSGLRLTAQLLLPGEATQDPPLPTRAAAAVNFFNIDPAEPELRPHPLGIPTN

[11] = molecular target: T2, Neuronal acetylcholine receptor; alpha4/beta2; assay: Displacement of [3H]Epibatidine from human recombinant alpha4beta2 nACh receptor expressed in HEK293 cells after 1 to […] by scintillation counting analysis; assay type: cell-based
[12] = molecular target: Nicotinic acetylcholine receptor alpha2/beta4 (Homo sapiens, UniProt P02708+P30926); assay: Displacement of [3H]Epibatidine from human recombinant alpha2beta4 nACh receptor expressed in HEK293 cells after 1 to […] by scintillation counting analysis; assay type: cell-based
[13] = molecular target: T4, 5-hydroxytryptamine receptor 2C (Homo sapiens, UniProt P28335); assay: Agonist activity at human 5-HT2C receptor expressed in HEK293 cells assessed as increase in calcium mobilization by FLIPR assay; assay type: functional, cell-based
T4 sequence (P28335 whole entry): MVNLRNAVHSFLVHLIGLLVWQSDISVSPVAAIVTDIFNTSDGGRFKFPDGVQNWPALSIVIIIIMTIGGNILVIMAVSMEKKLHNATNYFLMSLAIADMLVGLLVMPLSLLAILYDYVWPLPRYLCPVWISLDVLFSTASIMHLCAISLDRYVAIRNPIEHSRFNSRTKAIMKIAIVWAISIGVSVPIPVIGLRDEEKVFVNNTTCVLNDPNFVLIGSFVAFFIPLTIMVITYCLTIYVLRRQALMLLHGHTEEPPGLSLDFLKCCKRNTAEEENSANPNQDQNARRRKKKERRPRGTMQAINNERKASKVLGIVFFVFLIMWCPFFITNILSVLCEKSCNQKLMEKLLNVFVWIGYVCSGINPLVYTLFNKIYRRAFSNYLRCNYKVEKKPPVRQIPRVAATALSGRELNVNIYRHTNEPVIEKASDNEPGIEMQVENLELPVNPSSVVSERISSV

[14] = molecular target: D(1B) dopamine receptor (Homo sapiens, UniProt P21918); assay: Displacement of […] from human recombinant dopamine D5 receptor expressed in HEK293 cells after 1 to […] by scintillation counting analysis; assay type: cell-based
[15] = molecular target: Histamine H2 receptor (Homo sapiens, UniProt P25021); assay: Displacement of [3H]Tiotidine from human recombinant histamine H2 receptor expressed in HEK293 cells after 1 to […] by scintillation counting analysis; assay type: cell-based
Sequence of Histamine H2 receptor (P25021 whole entry): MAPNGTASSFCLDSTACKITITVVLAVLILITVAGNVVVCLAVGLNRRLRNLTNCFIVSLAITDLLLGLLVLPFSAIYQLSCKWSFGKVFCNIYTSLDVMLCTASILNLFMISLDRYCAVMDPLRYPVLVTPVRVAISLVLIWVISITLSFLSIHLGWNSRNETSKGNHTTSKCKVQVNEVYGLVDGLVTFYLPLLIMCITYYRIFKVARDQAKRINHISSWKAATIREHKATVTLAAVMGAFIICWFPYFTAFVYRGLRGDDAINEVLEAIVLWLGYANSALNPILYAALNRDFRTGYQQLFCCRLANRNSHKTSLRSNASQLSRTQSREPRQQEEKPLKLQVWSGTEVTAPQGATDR

[16] = molecular target: Alpha-2A adrenergic receptor (Homo sapiens, UniProt P08913); assay: Displacement of [3H]Clonidine from human recombinant adrenergic alpha2A receptor expressed in MDCK cells after 1 to […] by scintillation counting analysis; assay type: cell-based
[17] = molecular target: Cannabinoid receptor 1 (Homo sapiens, UniProt P21554); assay: Displacement of [3H]CP55940 from human recombinant CB1 receptor expressed in HEK293 cells coexpressing FLP-IN after 1 to […] by scintillation counting analysis; assay type: cell-based
[18] = molecular target: Sigma non-opioid intracellular receptor 1 (Cavia porcellus, UniProt Q60492); assay: Displacement of [3H]Pentazocine from guinea pig sigma 1 receptor after 1 to […] by scintillation counting analysis
Sequence of Sigma non-opioid intracellular receptor 1 (Q60492 whole entry): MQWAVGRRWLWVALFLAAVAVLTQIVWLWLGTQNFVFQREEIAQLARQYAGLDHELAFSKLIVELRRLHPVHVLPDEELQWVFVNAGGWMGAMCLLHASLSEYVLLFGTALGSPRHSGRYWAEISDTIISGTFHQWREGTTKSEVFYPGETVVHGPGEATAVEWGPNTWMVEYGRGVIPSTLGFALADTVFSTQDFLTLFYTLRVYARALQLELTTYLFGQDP

[19] = molecular target: T1, 5-hydroxytryptamine receptor 2B; assay: Agonist activity at human 5-HT2B receptor expressed in HEK293 cells assessed as increase in calcium mobilization by FLIPR assay; assay type: functional, cell-based
[20] = molecular target: Neuronal acetylcholine receptor; alpha3/beta4 (Homo sapiens, UniProt P30926+P32297); assay: Displacement of [3H]Epibatidine from human recombinant alpha3beta4 nACh receptor expressed in HEK293 cells after 1 to […] by scintillation counting analysis; assay type: cell-based
[21] = molecular target: Beta-2 adrenergic receptor (Homo sapiens, UniProt P07550); assay: Displacement of [125I]Iodopindolol from human recombinant adrenergic beta2 receptor expressed in HEK293 cells coexpressing FLP-IN after 1 to […] by scintillation counting analysis; assay type: cell-based
[22] = molecular target: 5-hydroxytryptamine receptor 3A (Homo sapiens, UniProt P46098); assay: Displacement of [3H]LY278584 from human recombinant 5-HT3 receptor expressed in HEK293T cells after 1 to […] by scintillation counting analysis; assay type: cell-based, HEK-293T
Sequence of 5-hydroxytryptamine receptor 3A (P46098 whole entry): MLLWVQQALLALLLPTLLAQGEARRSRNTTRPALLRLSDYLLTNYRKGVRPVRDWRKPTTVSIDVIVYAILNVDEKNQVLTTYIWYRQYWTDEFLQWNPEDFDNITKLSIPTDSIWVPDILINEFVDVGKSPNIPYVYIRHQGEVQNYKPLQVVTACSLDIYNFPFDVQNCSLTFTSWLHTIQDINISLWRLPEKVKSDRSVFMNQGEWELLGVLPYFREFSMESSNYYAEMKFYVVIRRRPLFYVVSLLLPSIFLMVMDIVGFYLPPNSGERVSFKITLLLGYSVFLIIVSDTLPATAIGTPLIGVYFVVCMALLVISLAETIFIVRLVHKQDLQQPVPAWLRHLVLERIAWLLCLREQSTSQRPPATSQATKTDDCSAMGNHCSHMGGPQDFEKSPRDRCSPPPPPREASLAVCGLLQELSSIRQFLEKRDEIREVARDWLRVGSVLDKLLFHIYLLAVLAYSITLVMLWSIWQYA

[23] = molecular target: D(4) dopamine receptor (Homo sapiens, UniProt P21917); assay: Displacement of [3H]N-methylspiperone from human recombinant dopamine D4 receptor expressed in HEK293 cells after 1 to […] by scintillation counting analysis; assay type: cell-based
[24] = molecular target: 5-hydroxytryptamine receptor 7 (Homo sapiens, UniProt P34969); assay: Displacement of [3H]LSD from human recombinant 5-HT7 receptor expressed in HEK293 cells after 1 to […] by scintillation counting analysis; assay type: cell-based
[25] = Displacement of [3H]Flunitrazepam from GABAA receptor benzodiazepine binding site in rat brain after 1 to […] by scintillation counting analysis; assay type: tissue-based
[26] = molecular target: T3, Sodium-dependent dopamine transporter; assay: Displacement of [3H]WIN35428 from human recombinant dopamine transporter expressed in HEK293 cells after 1 to […] by scintillation counting analysis; assay type: cell-based

T1 sequence (P41595 whole entry): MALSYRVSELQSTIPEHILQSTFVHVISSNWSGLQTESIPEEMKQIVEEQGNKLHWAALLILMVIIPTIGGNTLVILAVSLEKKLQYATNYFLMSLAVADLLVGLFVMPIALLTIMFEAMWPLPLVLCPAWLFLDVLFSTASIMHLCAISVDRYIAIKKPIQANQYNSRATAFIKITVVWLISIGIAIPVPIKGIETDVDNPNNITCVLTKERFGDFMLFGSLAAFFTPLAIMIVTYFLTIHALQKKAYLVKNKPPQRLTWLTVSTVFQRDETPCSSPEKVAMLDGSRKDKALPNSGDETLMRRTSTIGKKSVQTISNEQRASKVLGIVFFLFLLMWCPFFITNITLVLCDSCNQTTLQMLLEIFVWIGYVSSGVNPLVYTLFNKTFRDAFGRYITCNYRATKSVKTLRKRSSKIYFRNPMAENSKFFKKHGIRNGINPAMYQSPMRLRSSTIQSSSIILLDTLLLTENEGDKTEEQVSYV

SMILES	Emax [1]	Ki [2]	Ki [3]	Ki [4]	Ki [5]	Ki [6]	Ki [7]	IC50 [8]	Ki [8]	pKi [9]	Ki [10]	Ki [11]	Ki [12]	EC50 [13]	Ki [14]	Ki [17]	Ki ([18]; read-out: pKi (converted))	EC50 [19]	Ki [20]	Ki [21]	other results
C=CCN(CC=C)CCc1c[nH]c2ccc(OC)cc12	95%	> 10 µM	> 10 µM	0.149 µM	> 10 µM	> 10 µM	> 10 µM	32.4 µM	17 µM	< 5	0.084 µM	> 10 µM	> 10 µM	0.0094 µM	> 10 µM	> 10 µM	0.398 µM	0.0055 µM	> 10 µM	> 10 µM	Ki ([15]; read-out: Ki): 4.25 µM; Ki ([16]; read-out: pKi (converted)): > 10 µM; Ki ([18]; read-out: Ki): 0.4 µM; Ki [22]: > 10 µM; Ki [23]: > 10 µM; Ki [24]: 0.017 µM; pKi [25]: < 5; Ki [26]: > 10 µM
CC(N)Cc1c[nH]c2ccccc12 (stereo not given)	84%	> 10 µM	> 10 µM	1.79 µM	> 10 µM	> 10 µM	> 10 µM	1.86 µM	0.666 µM	< 5	0.909 µM	> 10 µM	> 10 µM	0.107 µM	> 10 µM	> 10 µM	> 10 µM	0.0758 µM	> 10 µM	> 10 µM	Ki ([15]; read-out: pKi (converted)): > 10 µM; Ki ([16]; read-out: Ki): 0.635 µM; Ki [22]: > 10 µM; Ki [23]: > 10 µM; Ki [24]: 0.103 µM; pKi [25]: < 5; Ki [26]: > 10 µM

Reference: ChEMBL document CHEMBL2390840, “An analysis of the synthetic tryptamines AMT and 5-MeO-DALT: emerging 'Novel Psychoactive Drugs'” (Bioorg Med Chem Lett, 2013)
